Results published in patent US9302999B2, “Substituted triazoles as herbicides” (E. I. DU PONT DE NEMOURS AND COMPANY, priority 2012, dated 2016).

Assays:
Type in all cases: in vivo
[1] = system: Waterhemp; assay: Test C preemergence: waterhemp; details: 62 g ai/ha, scale of 0 to 100, 0 is no effect, 100 is complete control
Text: (§1) Seeds of plant species selected from blackgrass (Alopecurus myosuroides), bromegrass, downy (downy bromegrass, Bromus tectorum), foxtail, green (green foxtail, Setaria viridis), ryegrass, Italian (Italian ryegrass, Lolium multiflorum), winter wheat (Triticum aestivum), wild oat (Avena fatua), galium (catchweed bedstraw, Galium aparine), bermudagrass (Cynodon dactylon), surinam grass (Brachiaria decumbens), cocklebur (common cocklebur, Xanthium strumarium), corn (Zea mays), large crabgrass (Digitaria sanguinalis), woolly cupgrass (Eriochloa villosa), foxtail, giant (giant foxtail, Setaria faberii), goosegrass (Eleusine indica), johnsongrass (Sorghum halepense), kochia (Kochia scoparia), lambsquarters (Chenopodium album), morningglory (Ipomoea coccinea), nightshade (eastern black nightshade, Solanum ptycanthum), nutsedge, yellow (yellow nutsedge, Cyperus esculentus), pigweed (Amaranthus retroflexus), ragweed (common ragweed, Ambrosia elation), soybean (Glycine max), common (oilseed) sunflower (Helianthus annuus), Russian thistle (Salsola kali) and velvetleaf (Abutilon theophrasti) were planted into a blend of loam soil and sand and treated preemergence with test chemicals formulated in a non-phytotoxic solvent mixture which included a surfactant.
(§2) Treated plants and controls were maintained in a greenhouse for 13 to 15 days, after which time all species were compared to controls and visually evaluated. Plant response ratings, summarized in Table C, are based on a scale of 0 to 100 where 0 is no effect and 100 is complete control. A dash (-) response means no test result.

[2] = system: barnyardgrass (Echinochloa crus-galli); assay: Test E pre-/postemergence: barnyardgrass; details: scale 0 to 100
Text: Seeds of plant species selected from corn (Zea mays), soybean (Glycine max), velvetleaf (Abutilon theophrasti), lambsquarters (Chenopodium album), poinsettia, wild (wild poinsettia, Euphorbia heterophylla), pigweed, palmer (palmer pigweed, Amaranthus palmeri), waterhemp (common waterhemp, Amaranthus rudis), smartweed (ladysthumb smartweed, Polygonum persicaria), surinam grass (Brachiaria decumbens), crabgrass, large (large crabgrass, Digitaria sanguinalis), crabgrass, Brazil (Brazilian crabgrass, Digitaria horizontalis), panicum, fall (fall panicum, Panicum dichotomiflorum), foxtail, giant (giant foxtail, Setaria faberii), foxtail, green (green foxtail, Setaria viridis), goosegrass (Eleusine indica), johnsongrass (Sorghum halepense), ragweed (common ragweed, Ambrosia elation), barnyardgrass (Echinochloa crus-galli), sandbur (southern sandbur, Cenchrus echinatus), arrowleaf sida (Sida rhombifolia), ryegrass, Italian (Italian ryegrass, Lolium multiflorum), dayflower, (VA) (Virginia dayflower, Commelina virginica), field bindweed (Convolvulus arvensis), cocklebur (common cocklebur, Xanthium strumarium), morningglory (Ipomoea coccinea), nightshade (eastern black nightshade, Solanum ptycanthum), kochia (Kochia scoparia), nutsedge, yellow (yellow nutsedge, Cyperus esculentus) and beggarticks (hairy beggarticks, Bidens pilosa) were planted into a silt loam soil and treated preemergence with test chemicals formulated in a non-phytotoxic solvent mixture which included a surfactant. At the same time, plants selected from these crop and weed species were planted in pots containing a growing medium comprising spaghnum peat moss, vermiculite, wetting agent and starter nutrients and treated with postemergence applications of some of the test chemicals formulated in the same manner. Plants ranged in height from 2 to 18 cm for postemergence treatments (1- to 4-leaf stage).
as §2, with “14” for “13”, “21” for “15”, “E,” for “C,”

[3] = system: buckwheat, wild (wild buckwheat, Polygonum convolvulus); assay: Test D pre-/postemergence: buckwheat, wild
Text: Seeds of plant species selected from bluegrass (annual bluegrass, Poa annua), blackgrass (Alopecurus myosuroides), canarygrass (Phalaris minor), chickweed (common chickweed, Stellaria media), galium (catchweed bedstraw, Galium aparine), bromegrass, downy (downy bromegrass, Bromus tectorum), field poppy (Papaver rhoeas), field violet (Viola arvensis), foxtail, green (green foxtail, Setaria viridis), deadnettle (henbit deadnettle, Lamium amplexicaule), ryegrass, Italian (Italian ryegrass, Lolium multiflorum), kochia (Kochia scoparia), lambsquarters (Chenopodium album), oilseed rape (Brassica napus), pigweed (Amaranthus retroflexus), Russian thistle (Salsola iberica), chamomile (scentless chamomile, Matricaria inodora), speedwell (bird's-eye speedwell, Veronica persica), barley, spring (spring barley, Hordeum vulgare), wheat, spring (spring wheat, Triticum aestivum), buckwheat, wild (wild buckwheat, Polygonum convolvulus), mustard, wild (wild mustard, Sinapis arvensis), oat, wild (wild oat, Avena fatua), radish, wild (wild radish, Raphanus raphanistrum), windgrass (Apera spica-venti), barley, winter (winter barley, Hordeum vulgare), and wheat, winter (winter wheat, Triticum aestivum) were planted into a silt loam soil and treated preemergence with test chemicals formulated in a non-phytotoxic solvent mixture which included a surfactant. At the same time, these same crop and weed species were planted in pots containing the planting medium comprising spaghnum peat moss, vermiculite, wetting agent and starter nutrients and treated with postemergence applications of the test chemicals formulated in the same manner. Plants ranged in height from 2 to 18 cm (1- to 4-leaf stage).
as §2, with “controlled growth environment” for “greenhouse”, “14” for “13”, “21 days” for “15 days,”, “D,” for “C,”

[4] = system: barnyardgrass (Echinochloa crus-galli); assay: Test C pre-/postemergence: barnyardgrass; details: Preemergence, 250 g ai/ha; scale 0 to 100, 0 no effect, 100 complete control
Text: as §1
At the same time, plants selected from these crop and weed species and also barley (winter barley, Hordeum vulgare), canarygrass (Phalaris minor), chickweed (common chickweed, Stellaria media) windgrass (Apera spica-venti) and deadnettle (henbit deadnettle, Lamium amplexicaule) were planted in pots containing Redi-Earth® planting medium (Scotts Company, 14111 Scottslawn Road, Marysville, Ohio 43041) comprising spaghnum peat moss, vermiculite, wetting agent and starter nutrients and treated with postemergence applications of test chemicals formulated in the same manner. Plants ranged in height from 2 to 18 cm (1- to 4-leaf stage) for postemergence treatments.
as §2

[5] = Postemergence, 31 g ai/ha, scale 0 to 100 (0 no effect, 100 complete control)
[6] = Postemergence, 62 g ai/ha, scale 0 to 100 (0 no effect, 100 complete control)
[7] = Postemergence, 125 g ai/ha, scale 0 to 100, 0 no effect, 100 complete control
[8] = Postemergence, 250 g ai/ha, scale 0 to 100 (0 no effect, 100 complete control)
[9] = Postemergence, 16 g ai/ha, scale 0 to 100
[10] = Preemergence, 16 g ai/ha, scale 0 to 100 (0 no effect, 100 complete control)
[11] = Preemergence, 31 g ai/ha, scale 0 to 100 (0 no effect, 100 complete control)
[12] = Preemergence, 62 g ai/ha, scale 0 to 100
[13] = Preemergence, 125 g ai/ha, scale 0 to 100
[14] = Preemergence, 250 g ai/ha, scale 0 to 100

SMILES	Plant response rating, Waterhemp [1]	Plant response rating: Buckwheat, Wild [3, 5]	Plant response rating: Buckwheat, Wild [3, 6]	Plant response rating: Buckwheat, Wild [3, 7]	Plant response rating: Buckwheat, Wild [3, 8]	Plant response rating, Buckwheat, Wild [3, 9]	Plant response rating, Buckwheat, Wild [3, 10]	Plant response rating, Buckwheat, Wild [3, 11]	Plant response rating, Buckwheat, Wild [3, 12]	Plant response rating, Buckwheat, Wild [3, 13]	Plant response rating, Barnyardgrass [4]	other results
CCOc1nn(-c2ccc(Br)cc2)nc1Cc1ccnc(C(F)(F)F)c1 [Compound 189]	100	–	–	–	–	–	–	–	–	–	–	–
Cc1nn(-c2ccc(F)cc2)nc1Cc1ccnc(C(F)(F)F)c1 [Compound 16, 4-[[2-(4-fluorophenyl)-5-methyl-2H-1,2,3-triazol-4-yl]methyl]-2-(trifluoromethyl)pyridine]	–	0	10	20	50	0	0	0	0	0	–	Plant response rating: Barnyardgrass ([2]; Preemergence, 8 g ai/ha): 0; Plant response rating: Barnyardgrass ([2]; Preemergence, 16 g ai/ha): 10; Plant response rating: Barnyardgrass ([2]; Preemergence, 31 g ai/ha): 50; Plant response rating: Barnyardgrass ([2]; Preemergence, 62 g ai/ha): 98; Plant response rating: Barnyardgrass ([2]; Preemergence, 125 g ai/ha): 98; Plant response rating, Buckwheat, Wild [3, 14]: 20
CCc1nn(-c2ccc(F)cc2)nc1Oc1ccnc(C(F)(F)F)c1 [Compound 166]	100	–	–	–	–	–	–	–	–	–	100	–
Cc1nn(-c2ccc(C(F)(F)F)c(F)c2)nc1Cc1ccnc(C(F)(F)F)c1 [Compound 162]	100	–	–	–	–	–	–	–	–	–	100	–
Cc1nn(-c2ccc(F)c(C(F)(F)F)c2)nc1Oc1ccnc(C(F)(F)F)c1 [Compound 147]	–	50	65	70	–	45	15	10	30	100	–	–
Cc1nn(-c2ccnc(C(F)(F)F)c2)nc1Cc1ccnc(C(F)(F)F)c1 [Compound 137]	–	30	65	65	80	30	–	–	–	–	–	–
Cc1nn(-c2ccc(F)c(F)c2)nc1Oc1ccnc(C(F)(F)F)c1 [Compound 145]	–	35	45	85	–	30	–	–	–	–	–	Plant response rating, Buckwheat, Wild ([3]; Postemergence, 8 g ai/ha, scale 0 to 100): 15
CCCc1nn(-c2ccc(F)cc2)nc1Cc1ccnc(C(F)(F)F)c1 [Compound 153]	100	–	–	–	–	–	–	–	–	–	100	–
CCOc1nn(-c2ccc(F)cc2)nc1Cc1ccnc(C(F)F)c1 [Compound 195]	–	20	30	35	65	15	0	0	20	20	–	Plant response rating, Buckwheat, Wild [3, 14]: 40
Cc1nn(-c2ccc(F)cc2)nc1Oc1ccnc(C(F)(F)F)c1 [Compound 129, 4-[[2-(4-fluorophenyl)-5-methyl-2H-1,2,3-triazol-4-yl]oxy]-2-(trifluoromethyl)pyridine]	–	60	80	100	100	60	0	0	0	70	–	Plant response rating: Barnyardgrass ([2]; Preemergence, 8 g ai/ha): 0; Plant response rating: Barnyardgrass ([2]; Preemergence, 16 g ai/ha): 0; Plant response rating: Barnyardgrass ([2]; Preemergence, 31 g ai/ha): 5; Plant response rating: Barnyardgrass ([2]; Preemergence, 62 g ai/ha): 10; Plant response rating: Barnyardgrass ([2]; Preemergence, 125 g ai/ha): 35; Plant response rating, Buckwheat, Wild [3, 14]: 100
CCCc1nn(-c2ccc(C(F)(F)F)c(F)c2)nc1Oc1ccnc(C(F)(F)F)c1 [Compound 185]	–	–	–	–	–	–	–	–	–	–	100	–
Cc1nn(-c2ccc(C(F)(F)F)cc2)nc1Cc1ccnc(C(F)(F)F)c1 [Compound 47, 4-[[5-methyl-2-[4-(trifluoromethyl)phenyl]-2H-1,2,3-triazol-4-yl]methyl]-2-(trifluoromethyl)pyridine]	–	–	–	–	–	–	–	–	–	–	–	Plant response rating: Barnyardgrass ([2]; Postemergence, 250 g ai/ha): 60; Plant response rating: Barnyardgrass ([2]; Postemergence, 16 g ai/ha): 30; Plant response rating: Barnyardgrass ([2]; Postemergence, 31 g ai/ha): 30; Plant response rating: Barnyardgrass ([2]; Postemergence, 62 g ai/ha): 40; Plant response rating: Barnyardgrass ([2]; Postemergence, 125 g ai/ha): 45; Plant response rating: Barnyardgrass ([2]; Preemergence, 16 g ai/ha): 5; Plant response rating: Barnyardgrass ([2]; Preemergence, 31 g ai/ha): 30; Plant response rating: Barnyardgrass ([2]; Preemergence, 62 g ai/ha): 85; Plant response rating: Barnyardgrass ([2]; Preemergence, 125 g ai/ha): 100; Plant response rating: Barnyardgrass ([2]; Preemergence, 250 g ai/ha): 100
